Experimental data reported in patent US9845330B2, “6-nitro-2,3-dihydroimidazo[2,1-b]oxazoles and a process for the preparation thereof” (priority 2013, dated 2017).
≈ marks a conversion by molar mass, not a printed value. Where two headings read alike, the source gives them in different places.

What was measured:
Type in all cases: cell-based
[1] = system: M. tuberculosis H37Rv (ATCC 27294); assay: MIC by broth dilution method, M. tuberculosis H37Rv; conditions: Mycobacterium tuberculosis
[2] = Cytotoxicity assay (MTT) in macrophage J774 cells; conditions: mouse, J774 macrophage cells; also called safety index
Protocol: (§1) The study was carried out using macrophage J774 cells line (ATCC-USA). Cells were grown in Rosewell Park Memorial Institute Medium (RPMI) containing 10% fetal calf serum (FCS) and supplemented with 75 mg/liter penicillin, 100 mg/liter streptomycin, 110 mg/liter Sodium pyruvate, 2.38 gm/liter HEPES, 0.05 mM 2 β-mercaptoethanol, and 2 gm/liter NaHCO3, in a humidified atmosphere in 5% CO2 at 37° C., and were sub-cultured at 1:4 ratio once a week.
(§2) Cells were plated at a density of 3×10^4 cells/cm^2 and maintained in culture medium for 12 hours. Cells were seeded onto 96-well flat bottom plates and FCS was reduced to 5% for the experiment. Stock solutions of compounds IA1 to IIC10 were prepared fresh to avoid oxidation. Cells were incubated with the compounds (40 μg/ml) for 24 hrs.
(§3) After the completion of incubation, the medium was removed and cell viability was evaluated by assaying for the ability of functional mitochondria to catalyze the reduction of 3-(4,5-dimethylthiazol-2-yl)-2,5-diphenyltetrazolium bromide (MTT) to form formazan salt by mitochondrial dehydrogenases, and determined by Elisa reader at 450 nm (Multiskan Spectrum; Thermo Electron Corporation, USA). Percentage cytotoxicity was calculated with respect to the untreated cells.

[3] = system: macrophage J774 cells line; assay: Cytotoxicity assay (MTT) in macrophage J774 cells; conditions: J774 cells, 24 hrs, MTT
Protocol: as §1, §2, §3

[4] = 504 h, broth dilution, 3 weeks, read-out: MIC M. tb H37Rv
[5] = read-out: MIC value, text summary: sensitive H37Rv as well as MDR and XDR strains of M. tuberculosis
[6] = 504 h, text summary: sensitive H37Rv as well as MDR and XDR strains of M. tuberculosis, read-out: MIC value

SMILES | MIC [1, 4] [µg/mL] | selectivity ratio at 24 h, 40 μg/ml [2] | Cytotoxicity [3] [µg/mL] | MIC [1, 5] [µg/mL] | MIC [1, 6] [µg/mL]
C[C@]1(COc2ccc(-n3cc(-c4ccccc4)nn3)cc2)Cn2cc([N+](=O)[O-])nc2O1 [IA1] | 4 (≈ 9.56 µM) | > 10 | >40 |  | 
C[C@]1(COc2ccc(-n3cc(-c4ccc(F)cc4)nn3)cc2)Cn2cc([N+](=O)[O-])nc2O1 [IA3, (R)-2-{4-[4-(4-fluorophenyl)-1H-1,2,3-triazol-1-yl]phenoxymethyl}-2,3-dihydro-2-methyl-6-nitroimidazo[2,1-b]oxazole] | 0.25 (≈ 0.573 µM) | > 10 | >40 | < 1 | 
C[C@]1(COc2ccc(S(=O)(=O)N3CCC(c4ccccc4)CC3)cc2)Cn2cc([N+](=O)[O-])nc2O1 [IIC8, (R)-2-{4-[(4-phenylpiperidin-1-yl)sulfonyl]phenoxymethyl}-2,3-dihydro-2-methyl-6-nitroimidazo[2,1-b]oxazole] | 0.5 (≈ 1 µM) | > 10 | >40 | 0.5 (≈ 1 µM) | 
C[C@]1(COc2ccccc2-n2cc(COc3ccc(OC(F)(F)F)cc3)nn2)Cn2cc([N+](=O)[O-])nc2O1 [IA39] | 1 (≈ 1.88 µM) | > 10 | >40 |  | 
C[C@]1(COc2ccc(-c3cc(-c4ccc(OC(F)(F)F)cc4)on3)cc2)Cn2cc([N+](=O)[O-])nc2O1 [IC10, (R)-2-{4-[5-(4-trifluoromethoxyphenyl)isoxazol-3-yl]phenoxymethyl}-2,3-dihydro-2-methyl-6-nitroimidazo[2,1-b]oxazole] | 0.5 (≈ 0.995 µM) | > 10 | >40 | < 1 | 
C[C@]1(COc2ccc(NC(=S)Nc3ccc(F)cc3)cc2)Cn2cc([N+](=O)[O-])nc2O1 [IIA9, (R)-1-(4-fluorophenyl)-3-{4-(2-methyl-6-nitro-2,3-dihydroimidazo[2,1-b]oxazol-2-yl)methoxyphenyl}thiourea] | 4 (≈ 9.02 µM) |  | >40 |  | 
CCc1ccc(OCc2cc(-c3ccc(OC[C@@]4(C)Cn5cc([N+](=O)[O-])nc5O4)cc3)no2)cc1 [IC19, (R)-2-{4-[5-(4-ethylphenoxymethyl)isoxazol-3-yl]phenoxymethyl}-2,3-dihydro-2-methyl-6-nitroimidazo[2,1-b]oxazole] | 2 (≈ 4.2 µM) |  | >40 |  | 
CC(C)c1ccc(OCc2cn(-c3cccc(OC[C@@]4(C)Cn5cc([N+](=O)[O-])nc5O4)c3)nn2)cc1 [IA38] | 4 (≈ 8.15 µM) |  | >40 |  | 
C[C@]1(COc2cccc(-n3cc(-c4ccc(C(F)(F)F)cc4)nn3)c2)Cn2cc([N+](=O)[O-])nc2O1 [IA18, (R)-2-{3-[4-(4-trifluoromethylphenyl)-1H-1,2,3-triazol-1-yl]phenoxymethyl}-2,3-dihydro-2-methyl-6-nitroimidazo[2,1-b]oxazole] | 2 (≈ 4.11 µM) |  | >40 |  | 
Cc1ccc(N(C)S(=O)(=O)c2ccc(OC[C@@]3(C)Cn4cc([N+](=O)[O-])nc4O3)cc2)cc1 [IIB5, (R)—N-methyl-4-{(2-methyl-6-nitro-2,3-dihydroimidazo[2,1-b]oxazol-2-yl)methoxy}-N-(p-tolyl)benzenesulfonamide] | 4 (≈ 8.72 µM) |  | >40 |  | 
C[C@]1(COc2ccc(-c3cc(-c4cccc(F)c4)on3)cc2)Cn2cc([N+](=O)[O-])nc2O1 [IC8, (R)-2-{4-[5-(3-fluorophenyl)isoxazol-3-yl]phenoxymethyl}-2,3-dihydro-2-methyl-6-nitroimidazo[2,1-b]oxazole] | 2 (≈ 4.58 µM) |  | >40 |  | 
C[C@]1(COc2cccc(-n3cc(COc4ccccc4F)nn3)c2)Cn2cc([N+](=O)[O-])nc2O1 [IA36] | 2 (≈ 4.29 µM) |  | >40 |  | 
Cc1ccc(Oc2nnnn2-c2ccc(OC[C@@]3(C)Cn4cc([N+](=O)[O-])nc4O3)cc2)cc1 [IB9, (R)-2-{4-[5-(4-methylphenoxy)-1H-tetrazol-1-yl]phenoxymethyl}-2,3-dihydro-2-methyl-6-nitroimidazo[2,1-b]oxazole] | 4 (≈ 8.9 µM) |  | >40 |  | 1 to 4 (≈ 2.23 to 8.9 µM)
C[C@]1(COc2ccc(-n3cc(-c4ccccc4F)nn3)cc2)Cn2cc([N+](=O)[O-])nc2O1 [IA4, (R)-2-{4-[4-(2-fluorophenyl)-1H-1,2,3-triazol-1-yl]phenoxymethyl}-2,3-dihydro-2-methyl-6-nitroimidazo[2,1-b]oxazole] | 1 (≈ 2.29 µM) |  | >40 |  | 
Cc1ccc(OCc2cn(-c3cccc(OC[C@@]4(C)Cn5cc([N+](=O)[O-])nc5O4)c3)nn2)cc1 [IA37] | 4 (≈ 8.65 µM) |  | >40 |  | 
C[C@]1(COc2ccc(S(=O)(=O)N3CCN(c4ccc(F)cc4)CC3)cc2)Cn2cc([N+](=O)[O-])nc2O1 [IIC2, (R)-2-{4-[4-(4-fluorophenyl)piperazin-1-yl]sulfonylphenoxymethyl}-2,3-dihydro-2-methyl-6-nitroimidazo[2,1-b]oxazole] | 2 (≈ 3.86 µM) |  | >40 |  | 
CCc1ccc(-c2nnnn2-c2ccc(OC[C@@]3(C)Cn4cc([N+](=O)[O-])nc4O3)cc2)cc1 [IB6, (R)-2-{4-[5-(4-ethylphenyl)-1H-tetrazol-1-yl]phenoxymethyl}-2,3-dihydro-2-methyl-6-nitroimidazo[2,1-b]oxazole] | 2 (≈ 4.47 µM) |  | >40 |  | 1 to 4 (≈ 2.23 to 8.94 µM)
CCC(C)c1ccc(OCc2cc(-c3ccc(OC[C@@]4(C)Cn5cc([N+](=O)[O-])nc5O4)cc3)no2)cc1 (stereo partly drawn) [IC20, (R)-2-{4-[5-(4-sec-butylphenoxymethyl)isoxazol-3-yl]phenoxymethyl}-2,3-dihydro-2-methyl-6-nitroimidazo[2,1-b]oxazole] | 2 (≈ 3.96 µM) |  | >40 |  | 
C[C@]1(COc2ccc(S(=O)(=O)Nc3ccc(C(F)(F)F)cc3)cc2)Cn2cc([N+](=O)[O-])nc2O1 [IIB3, (R)-4-{(2-methyl-6-nitro-2,3-dihydroimidazo[2,1-b]oxazol-2-yl)methoxy}-N-(4 trifluoromethylphenyl)benzenesulfonamide] | 2 (≈ 4.01 µM) |  | >40 |  | 
C[C@]1(COc2ccc(-n3nnnc3-c3ccccc3)cc2)Cn2cc([N+](=O)[O-])nc2O1 [IB1, (R)-2-{4-[5-phenyl-1H-tetrazol-1-yl]phenoxymethyl}-2,3-dihydro-2-methyl-6-nitroimidazo[2,1-b]oxazole] | 2 (≈ 4.77 µM) |  | >40 |  | 1 to 4 (≈ 2.38 to 9.54 µM)
C[C@]1(COc2cccc(-n3cc(COc4ccc(C(F)(F)F)cc4)nn3)c2)Cn2cc([N+](=O)[O-])nc2O1 [IA35] | 2 (≈ 3.87 µM) |  | >40 |  | 
Cc1ccc(-c2cn(-c3ccc(OC[C@@]4(C)Cn5cc([N+](=O)[O-])nc5O4)cc3)nn2)cc1 [IA8, (R)-2-{4-[4-(4-methylphenyl)-1H-1,2,3-triazol-1-yl]phenoxymethyl}-2,3-dihydro-2-methyl-6-nitroimidazo[2,1-b]oxazole] | 1 (≈ 2.31 µM) |  | >40 |  | 
CN(c1ccc(C(F)(F)F)cc1)S(=O)(=O)c1ccc(OC[C@@]2(C)Cn3cc([N+](=O)[O-])nc3O2)cc1 [IIB6, (R)—N-methyl-4-{(2-methyl-6-nitro-2,3-dihydroimidazo[2,1-b]oxazol-2-yl)methoxy}-N-(p-trifluoromethylphenyl)benzenesulfonamide] | 1 (≈ 1.95 µM) |  | >40 |  | 
C[C@]1(COc2ccccc2-n2cc(-c3ccc(OC(F)(F)F)cc3)nn2)Cn2cc([N+](=O)[O-])nc2O1 [IA23, (R)-2-{2-[4-(4-trifluoromethoxyphenyl)-1H-1,2,3-triazol-1-yl]phenoxymethyl}-2,3-dihydro-2-methyl-6-nitroimidazo[2,1-b]oxazole] | 4 (≈ 7.96 µM) |  | >40 |  | 
C[C@]1(COc2ccc(-n3nnnc3-c3ccc(F)cc3)cc2)Cn2cc([N+](=O)[O-])nc2O1 [IB4, (R)-2-{4-[5-(4-fluorophenyl)-1H-tetrazol-1-yl]phenoxymethyl}-2,3-dihydro-2-methyl-6-nitroimidazo[2,1-b]oxazole] | 4 (≈ 9.15 µM) |  | >40 |  | 1 to 4 (≈ 2.29 to 9.15 µM)
CC(C)c1ccc(-c2cn(-c3ccc(OC[C@@]4(C)Cn5cc([N+](=O)[O-])nc5O4)cc3)nn2)cc1 [IA9, (R)-2-{4-[4-(4-isopropylphenyl)-1H-1,2,3-triazol-1-yl]phenoxymethyl}-2,3-dihydro-2-methyl-6-nitroimidazo[2,1-b]oxazole] | 1 (≈ 2.17 µM) |  | >40 |  | 
C[C@]1(COc2ccc(-c3cc(COc4ccccc4)on3)cc2)Cn2cc([N+](=O)[O-])nc2O1 [IC21, (R)-2-{4-[5-(phenoxymethyl)isoxazol-3-yl]phenoxymethyl}-2,3-dihydro-2-methyl-6-nitroimidazo[2,1-b]oxazole] | 4 (≈ 8.92 µM) |  | >40 |  | 
C[C@]1(COc2cccc(-n3cc(-c4ccc(OC(F)(F)F)cc4)nn3)c2)Cn2cc([N+](=O)[O-])nc2O1 [IA19, (R)-2-{3-[4-(4-trifluoromethoxyphenyl)-1H-1,2,3-triazol-1-yl]phenoxymethyl}-2,3-dihydro-2-methyl-6-nitroimidazo[2,1-b]oxazole] | 4 (≈ 7.96 µM) |  | >40 |  | 
